According to patent US20140088144A1, “INHIBITING MICROBIAL INFECTIONS” (THE UNIVERSITY OF KANSAS, priority 2012, published 2014):

Assays:
[1] = tested on: MBP-NS1-NTD; experiment: Fluorescence-based thermal shift assay (Sypro Orange), control protein; format: binding; conditions: 0 or 80 μM SE-1, 1 μM protein
Description: Binding of SE-1 to purified VirF was tested by comparing the VirF melting temperature (Tm) in the absence and presence of SE-1 using a thermal shift assay with the fluorescent dye Sypro Orange (Molecular Probes). This method is also known as differential scanning fluorimetry or DSF. As a control, we tested binding of SE-1 to the purified, unrelated, MBP-NS1-NTD protein (greater than 95% pure). Reactions contained (final concentrations): 1 μM protein; 20×Sypro Orange (a 250-fold dilution of the purchased 5,000× stock solution); 0.76×EMSA buffer (7.6 mM Tris-acetate, pH 7.4, 0.76 mM KEDTA, 38 mM KCl, and 0.76 mM DTT); 4% DMSO; and 0 or 80 μM SE-1. The reactions were carried out in 0.1 ml PCR low profile 8-tube strips with optically clear flat caps (USA Scientific) in a StepOnePlus™ Real-Time PCR System (Applied Biosystems), heating from 25 to 99° C. in increments of 0.8° C. The data was analyzed using the Boltzmann sigmoidal model in the software Prism (GraphPad). Data points before and after the fluorescence intensity minimum and maximum, respectively, were excluded from fitting. The ΔTm values are the average of three independent experiments with two replicates in each experiment. A single, representative, experiment is shown.

[2] = tested on: icsA; experiment: Shigella gene expression qRT-PCR, icsA; format: cell-based, S. flexneri; conditions: for Average ΔΔCt / Ct / RQ (2^−ΔΔCt) / ΔΔCt^1 (normalized to gapA) / ΔΔCt^2 (normalized to rrsA): icsA, example data
Description: Real-time quantitative reverse transcription PCR (qRT-PCR) was performed to test the effects of SE-1 on the expression of the VirF regulated genes virB, icsA, icsB and ipaB. The gapA and rrsA transcripts were used as internal controls. These are constitutively expressed Shigella genes commonly used to normalize mRNA levels. S. flexneri strain SME4331, which carries a null mutation in ipgD (ipgD), was grown at 30° C. overnight in TSB with ampicillin, diluted into the same medium to an OD600 of ˜0.1, and 1 ml aliquots further grown at 30° C. (DMSO only) or at 37° C. (SE-1 at 20 or 40 μM, or DMSO only, all 0.3% DMSO). Cells were grown to an OD600 of 1.0 (˜2.5 h) and RNA was isolated using an RNeasy MiniElute Cleanup Kit (Qiagen, Germantown, Md.), with DNA contamination eliminated using a Turbo DNase Kit (Ambion, Austin, Tex.). Complementary DNA (cDNA) was synthesized by random priming using a cDNA Reverse Transcription Kit (Applied Biosystems, Foster City, Calif.). Primers were tested for PCR specificity using genomic DNA template to ensure a single amplicon of the expected size for each primer pair, and validated using 5-fold dilutions of cDNA (2000 to 0.0256 ng) to ensure a linear plot of cycle threshold (Ct) versus cDNA concentration. Validated primer sets were used to test mRNA profiles in reactions that contained 10 ng of cDNA, 10 μl of SYBR green master mix (Applied Biosystems), specific primers (0.5 μM each) and water to a final volume of 20 μl, using a Step One Plus Real-Time PCR System (Applied Biosystems). The data was analyzed using the 2^−ΔΔCt method, and also by Applied Biosystems real-time analysis software. […] In brief, ΔΔCt values [ΔΔCt=(Ct,Target−Ct,Internal Control)SE-1−(Ct,Target−Ct,Internal Control)no SE-1] were separately obtained for each sample relative to two internal controls, gapA and rrsA. The ΔΔCt values relative to the two internal controls for each sample were averaged and then used to calculate the relative expression levels (2^−ΔΔCt). As a control, we also normalized each internal control to the other internal control. Control reactions used templates generated without reverse transcriptase to ensure low genomic DNA contamination. To ensure that products were not likely to be due to primer dimer artifacts, additional control samples were performed in which reaction mixtures contained primers alone (no template).

CCCCN1C=C(c2ccc3ccccc3n2)C(C[N+](=O)[O-])c2ccccc21 (stereo not shown) [Compound 1, 1-butyl-4-(nitromethyl)-3-quinolin-2-yl-4H-quinoline]
change in melting temperature of MBP-NS1-NTD [1]: 0.15 °C | icsA expression level ([2]; 20 μM inhibitor, 37° C.): essentially unchanged | icsA expression level ([2]; 40 μM inhibitor, P<0.05): significantly reduced | Average ΔΔCt ([2]; SE-1 20 μM): 0.04 | Ct ([2]; SE-1 20 μM): 27.88 | RQ (2^−ΔΔCt) ([2]; SE-1 20 μM): 0.97 | ΔΔCt^1 (normalized to gapA) ([2]; SE-1 20 μM): −0.46 | ΔΔCt^2 (normalized to rrsA) ([2]; SE-1 20 μM): 0.54 | Average ΔΔCt ([2]; SE-1 40 μM): 1.17 | Ct ([2]; SE-1 40 μM): 28.59 | RQ (2^−ΔΔCt) ([2]; SE-1 40 μM): 0.44 | ΔΔCt^1 (normalized to gapA) ([2]; SE-1 40 μM): 0.82 | ΔΔCt^2 (normalized to rrsA) ([2]; SE-1 40 μM): 1.52
